Source: ChEMBL document CHEMBL1201862, “PubChem BioAssay data set” (2004)
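Step 1: Grow cells in 96-well plates. Step 2: Expose to compound for 48 hours at 5 concentrations. Step 3: Interpolate endpoints linearly; if unreached, use highest concentration. At the GI50, growth is halved.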 The source made the active and inactive calls. Rule as the data show it: active = GI50 up to about 1.1 µM and inactive = higher.

What was measured:
Test in all cases: NCI tumour cell line growth inhibition, 48 h
[1] = test system: SF-268
[2] = test system: TK-10
[3] = test system: NCI-H23
[4] = test system: SK-MEL-5
[5] = test system: 786-0
[6] = test system: HL-60
[7] = test system: DLD-1
[8] = test system: SK-OV-3
[9] = test system: RPMI-8226
[10] = test system: UO-31
[11] = test system: SNB-75
[12] = test system: SN12C
[13] = test system: U-251
[14] = test system: OVCAR-3
[15] = test system: A549
[16] = test system: ACHN
[17] = test system: MDA-MB-231
[18] = test system: MCF7
[19] = test system: BT-549
[20] = test system: NCI/ADR-RES

SMILES | GI50 [1] | GI50 [2] | GI50 [3] | GI50 [4] | GI50 [5] | GI50 [6] | GI50 [7] | GI50 [8] | GI50 [9] | GI50 [10] | GI50 [11] | GI50 [12] | GI50 [13] | GI50 [14] | GI50 [15] | GI50 [16] | GI50 [17] | GI50 [18] | GI50 [19] | GI50 [20]
COc1ccc(C(=O)O[C@H]2[C@@H]3C=CO[C@@H](OC4OC(CO)C(O)C(O)C4O)[C@@H]3[C@@]3(CO)O[C@@H]23)cc1O (stereo not given in full) | > 100 µM (inactive) | > 100 µM (inactive) | > 100 µM (inactive) | > 100 µM (inactive) | > 100 µM (inactive) | > 100 µM (inactive) | > 100 µM (inactive) | > 100 µM (inactive) | > 100 µM (inactive) | > 100 µM (inactive) | > 100 µM (inactive) | > 100 µM (inactive) | > 100 µM (inactive) | > 100 µM (inactive) | > 100 µM (inactive) | > 100 µM (inactive) | – | – | – | –
Cc1c2ccccc2c(=O)n2c(-c3ccccn3)cccc12 | > 100 µM (inactive) | > 100 µM (inactive) | > 100 µM (inactive) | > 100 µM (inactive) | > 100 µM (inactive) | > 100 µM (inactive) | > 100 µM (inactive) | > 100 µM (inactive) | > 100 µM (inactive) | > 100 µM (inactive) | > 100 µM (inactive) | > 100 µM (inactive) | > 100 µM (inactive) | 97.1 µM (inactive) | > 100 µM (inactive) | > 100 µM (inactive) | – | – | – | –
C=CCC1C(=O)CC2(C)C(CC=C)C(=O)CC12C (stereo not given) | – | > 100 µM (inactive) | > 100 µM (inactive) | > 100 µM (inactive) | > 100 µM (inactive) | > 100 µM (inactive) | > 100 µM (inactive) | > 100 µM (inactive) | > 100 µM (inactive) | > 100 µM (inactive) | > 100 µM (inactive) | > 100 µM (inactive) | > 100 µM (inactive) | > 100 µM (inactive) | > 100 µM (inactive) | > 100 µM (inactive) | – | – | – | –
O=Cc1c(O)ccc2ccc(O)c(-c3c(O)ccc4ccc(O)cc34)c12 | > 100 µM (inactive) | > 100 µM (inactive) | > 100 µM (inactive) | > 100 µM (inactive) | > 100 µM (inactive) | > 100 µM (inactive) | > 100 µM (inactive) | > 100 µM (inactive) | > 100 µM (inactive) | > 100 µM (inactive) | 88.7 µM (inactive) | > 100 µM (inactive) | > 100 µM (inactive) | 48.2 µM (inactive) | > 100 µM (inactive) | > 100 µM (inactive) | – | – | – | –
CS(=O)(=O)OCCN1CCN(C(=O)c2ccc(Cl)c3c(Nc4ccc(S(=O)(=O)N=C(N)N)cc4)c4ccccc4nc23)CC1 | > 100 µM (inactive) | > 100 µM (inactive) | > 100 µM (inactive) | > 100 µM (inactive) | > 100 µM (inactive) | > 100 µM (inactive) | > 100 µM (inactive) | > 100 µM (inactive) | > 100 µM (inactive) | > 100 µM (inactive) | > 100 µM (inactive) | > 100 µM (inactive) | > 100 µM (inactive) | > 100 µM (inactive) | > 100 µM (inactive) | > 100 µM (inactive) | – | – | – | –
CSc1ccc2c(cc1=O)[C@@H](NC(=O)c1ccc(Cl)cc1)CCc1cc(O)c(O)c(O)c1-2 | > 100 µM (inactive) | > 100 µM (inactive) | 32.1 µM (inactive) | 50.4 µM (inactive) | > 100 µM (inactive) | 27.5 µM (inactive) | 26.1 µM (inactive) | > 100 µM (inactive) | 23.3 µM (inactive) | > 100 µM (inactive) | 27.7 µM (inactive) | 24.5 µM (inactive) | 21.8 µM (inactive) | 23.2 µM (inactive) | 53 µM (inactive) | > 100 µM (inactive) | – | – | – | –
Cc1c(O)c(=O)ccn1C1OC(CO)C(O)C1O (stereo not given) | > 100 µM (inactive) | 68.9 µM (inactive) | – | > 100 µM (inactive) | 85.9 µM (inactive) | 17.4 µM (inactive) | 91.8 µM (inactive) | > 100 µM (inactive) | > 100 µM (inactive) | > 100 µM (inactive) | > 100 µM (inactive) | > 100 µM (inactive) | > 100 µM (inactive) | > 100 µM (inactive) | > 100 µM (inactive) | > 100 µM (inactive) | – | – | – | –
C/C1=C\[C@H](C)C[C@H](C)OC(=O)C[C@H](c2ccc(O)cc2)NC(=O)[C@@H](Cc2c(Br)[nH]c3ccccc23)N(C)C(=O)[C@H](C)NC(=O)[C@@H](C)C1 [JASPAMIDE] | 0.139 µM (active) | 0.294 µM (active) | 0.467 µM (active) | 0.158 µM (active) | 0.128 µM (active) | 0.132 µM (active) | 0.843 µM (active) | 0.185 µM (active) | 0.218 µM (active) | 0.192 µM (active) | 0.084 µM (active) | 0.361 µM (active) | 0.243 µM (active) | 0.139 µM (active) | 0.172 µM (active) | 0.199 µM (active) | 0.0287 µM (active) | 0.0895 µM (active) | 0.0292 µM (active) | 0.367 µM (active)
